In ChEMBL document CHEMBL1140991, “Synthesis and testing of peptides for anti-prion activity” (Eur J Med Chem, 2008):
Peptide text beside a SMILES is read from it.

Columns and labels:
brain [1] = assay: Antiprion activity against Scrapie prion protein-infected mouse brain cells assessed as remaining PrP-res level at 10 uM after 4 days by Western blotting relative to control; assay type: tissue-based
brain [2] = assay: Antiprion activity against Scrapie prion protein-infected mouse brain cells assessed as remaining PrP-res level at 100 uM after 4 days by Western blotting relative to control; assay type: tissue-based
[3] = target: Major prion protein (Mus musculus) (UniProt P04925); assay: Inhibition of manganese-induced aggregation in mouse recombinant PrP assessed as PrP-res formation at 100 uM after 30 mins relative to control; set-up: scale not given: the % may be the effect or the level left
[4] = target: Major prion protein (Mus musculus) (UniProt P04925); assay: Inhibition of mouse recombinant PrP interaction with scrapie mouse brain PrP-res assessed as PrP-res formation at 100 uM after 30 mins by aggregation assay relative to control

Chain of Major prion protein (Mus musculus) (P04925 whole entry): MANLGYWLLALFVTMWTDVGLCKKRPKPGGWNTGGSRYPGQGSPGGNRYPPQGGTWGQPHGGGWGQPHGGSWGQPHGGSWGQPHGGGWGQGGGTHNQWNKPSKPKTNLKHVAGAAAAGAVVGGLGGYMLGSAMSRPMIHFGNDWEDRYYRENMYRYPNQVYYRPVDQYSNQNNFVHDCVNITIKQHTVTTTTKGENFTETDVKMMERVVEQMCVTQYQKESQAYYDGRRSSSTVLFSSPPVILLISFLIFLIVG

In the case of `CC(C)[C@H](NC(=O)[C@@H](NC(=O)[C@H](C)NC(=O)CNC(=O)[C@@H]1CCCN1C(=O)[C@H](C)NC(=O)[C@H](C)NC(=O)[C@H](C)NC(=O)CNC(=O)[C@H](C)NC(=O)[C@@H](C)N)C(C)C)C(N)=O`, the Remaining PrP-res level (brain [1]) is reported as 73%, the Activity (brain [2]) is reported as 5% and the Activity [3] is reported as 52%. The PrP-res formation relative to control [4] was 52%.
`CC(C)[C@H](NC(=O)[C@@H](NC(=O)[C@H](C)NC(=O)CNC(=O)[C@H](C)NC(=O)[C@H](C)NC(=O)[C@H](C)NC(=O)[C@H](C)NC(=O)[C@@H]1CCCN1C(=O)[C@H](C)NC(=O)[C@@H](C)N)C(C)C)C(N)=O` gave a Remaining PrP-res level (brain [1]) of 131%, an Activity (brain [2]) of 14% and an Activity [3] of 22%. The PrP-res formation relative to control [4] was 22%.
Work on `CC(C)[C@H](NC(=O)[C@H](C)NC(=O)CNC(=O)[C@@H]1CCCN1C(=O)[C@H](C)NC(=O)[C@H](C)NC(=O)[C@H](C)NC(=O)CNC(=O)[C@H](C)NC(=O)[C@@H](C)N)C(N)=O` yielded an Activity (brain [2]) of 129% and an Activity [3] of 54%.
In the case of `CC(C)[C@H](NC(=O)[C@H](C)NC(=O)CNC(=O)[C@H](C)NC(=O)[C@H](C)NC(=O)[C@H](C)NC(=O)[C@H](C)NC(=O)[C@@H]1CCCN1C(=O)[C@H](C)NC(=O)[C@@H](C)N)C(N)=O`, the Activity (brain [2]) is reported as 148% and the Activity [3] is reported as 28%.
In the case of `C[C@H](NC(=O)CNC(=O)[C@@H]1CCCN1C(=O)[C@H](C)NC(=O)[C@H](C)NC(=O)[C@H](C)NC(=O)CNC(=O)[C@@H]1CCCN1C(=O)[C@@H](C)N)C(N)=O`, the Activity (brain [2]) is reported as 7% and the Activity [3] is reported as 89%.
`C[C@H](NC(=O)CNC(=O)[C@@H]1CCCN1C(=O)[C@H](C)NC(=O)[C@H](C)NC(=O)[C@H](C)NC(=O)CNC(=O)[C@H](C)NC(=O)[C@@H](C)N)C(N)=O` was tested, and the Activity (brain [2]) was 81% and the Activity [3] was 27%.
`C[C@H](NC(=O)CNC(=O)[C@@H]1CCCN1C(=O)[C@H](C)NC(=O)[C@H](C)NC(=O)[C@H](C)NC(=O)[C@@H]1CCCN1C(=O)[C@H](C)NC(=O)[C@@H](C)N)C(N)=O` showed an Activity (brain [2]) of 33% and an Activity [3] of 85%.
`C[C@H](NC(=O)CNC(=O)[C@H](C)NC(=O)[C@@H](C)N)C(=O)N[C@@H](C)C(=O)N[C@@H](C)C(=O)N1CCC[C@H]1C(=O)NCC(=O)N1CCC[C@H]1C(N)=O` showed an Activity (brain [2]) of 88% and an Activity [3] of 27%.
Compound `C[C@H](NC(=O)CNC(=O)[C@H](C)NC(=O)[C@@H](C)N)C(=O)N[C@@H](C)C(=O)N[C@@H](C)C(=O)N1CCC[C@H]1C(=O)NCC(N)=O` has an Activity (brain [2]) of 108%, an Activity [3] of 2% and a PrP-res formation relative to control [4] of 2%.
With `C[C@H](NC(=O)CNC(=O)[C@H](C)NC(=O)[C@@H](C)N)C(=O)N[C@@H](C)C(=O)N[C@@H](C)C(=O)N1CCC[C@H]1C(N)=O` the Activity (brain [2]) was 206%.
For `C[C@H](NC(=O)CNC(=O)[C@H](C)NC(=O)[C@H](C)NC(=O)[C@H](C)NC(=O)[C@H](C)NC(=O)[C@@H]1CCCN1C(=O)[C@H](C)NC(=O)[C@@H](C)N)C(N)=O`, the Activity (brain [2]) was 66% and the Activity [3] was 103%.
For `C[C@H](NC(=O)[C@@H](C)N)C(=O)N1CCC[C@H]1C(=O)NCC(N)=O`, the Activity (brain [2]) was 100% and the Activity [3] was 88%.
`C[C@H](NC(=O)[C@@H]1CCCN1C(=O)[C@@H](C)N)C(N)=O` gave an Activity (brain [2]) of 45% and an Activity [3] of 148%.
`C[C@H](NC(=O)[C@H](C)NC(=O)[C@H](C)NC(=O)[C@H](C)NC(=O)[C@@H]1CCCN1C(=O)[C@H](C)NC(=O)[C@@H](C)N)C(=O)NCC(N)=O` showed an Activity (brain [2]) of 128%, an Activity [3] of 46% and a PrP-res formation relative to control [4] of 46%.
Compound `C[C@H](NC(=O)[C@H](C)NC(=O)[C@H](C)NC(=O)[C@H](C)NC(=O)[C@@H]1CCCN1C(=O)[C@H](C)NC(=O)[C@@H](C)N)C(N)=O` has an Activity (brain [2]) of 195%, an Activity [3] of 2% and a PrP-res formation relative to control [4] of 2%.
In the case of `C[C@H](NC(=O)[C@@H]1CCCN1C(=O)[C@H](C)NC(=O)CN)C(=O)O` (H-GAPA-OH), the Activity (brain [2]) is reported as 47% and the Activity [3] is reported as 266%.
For `C[C@H](NC(=O)CN)C(=O)N1CCC[C@H]1C(N)=O` (H-Gly-Ala-Pro-NH2), the Activity (brain [2]) was 32% and the Activity [3] was 111%.
`NCC(=O)N1CCC[C@H]1C(=O)N1CCC[C@H]1C(N)=O` (H-Gly-Pro-Pro-NH2) showed an Activity (brain [2]) of 25% and an Activity [3] of 81%.
Work on `C[C@H](NC(=O)[C@H](C)NC(=O)[C@@H]1CCCN1)C(N)=O` (H-Pro-Ala-Ala-NH2) yielded an Activity (brain [2]) of 51% and an Activity [3] of 88%.
Work on `C[C@H](NC(=O)[C@@H]1CCCN1)C(=O)N1CCC[C@H]1C(N)=O` (H-Pro-Ala-Pro-NH2) yielded an Activity (brain [2]) of 156% and an Activity [3] of 59%.
`C[C@H](NC(=O)[C@@H]1CCCN1C(=O)[C@@H]1CCCN1)C(N)=O` (H-Pro-Pro-Ala-NH2) gave an Activity (brain [2]) of 10% and an Activity [3] of 125%.
In the case of `NC(=O)CNC(=O)[C@@H]1CCCN1C(=O)[C@@H]1CCCN1` (H-Pro-Pro-Gly-NH2), the Activity (brain [2]) is reported as 48% and the Activity [3] is reported as 96%.
For H-AAGAAAA-NH2, the Activity (brain [2]) was 65%.
H-AAGAAAAG-NH2 showed an Activity (brain [2]) of 108%, an Activity [3] of 23% and a PrP-res formation relative to control [4] of 23%.
Work on H-AAGAAAAGA-NH2 yielded an Activity (brain [2]) of 56% and an Activity [3] of 76%.
In the case of H-AAGAAAAGAV-NH2, the Activity (brain [2]) is reported as 133% and the Activity [3] is reported as 57%.
With H-AAGAAAAGAVV-NH2 the Remaining PrP-res level (brain [1]) was 200%, the Activity (brain [2]) was 34% and the Activity [3] was 17%. For the same compound, the PrP-res formation relative to control [4] was 17%.
Compound H-GAAAPG-NH2 has an Activity (brain [2]) of 124% and an Activity [3] of 111%.
In the case of H-GAAAPP-NH2, the Activity (brain [2]) is reported as 30% and the Activity [3] is reported as 148%.
